Test results as given in patent publication US9221809B2 (MERCK SHARP & DOHME CORP., priority 2011, dated 2015).
Structures can show the parent of a compound that is named as a salt. Where two headings read alike, the source gives them in different places.

Molecular target: IRAK4 (Homo sapiens (Human), UniProt Q9NWZ3)
Experiment: IRAK4 kinase activity, IMAP fluorescence polarization assay
Format: biochemical
Conditions: 100 μM ATP, read-out: IRAK4 IC50
Procedure, shortened: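 Fluorescence polarization (IMAP nanoparticle binding of phosphopeptide) reports activity after a 30 min, 25 °C reaction. Conditions: 100 μM ATP, 0.5 nM GST-IRAK4, 100 nM fluorescent peptide, 10 mM Tris pH 7.2, 1 mM MgCl2, 1 mM DTT, 0.01% Tween 20.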

Sequence of IRAK4 (Q9NWZ3 whole entry): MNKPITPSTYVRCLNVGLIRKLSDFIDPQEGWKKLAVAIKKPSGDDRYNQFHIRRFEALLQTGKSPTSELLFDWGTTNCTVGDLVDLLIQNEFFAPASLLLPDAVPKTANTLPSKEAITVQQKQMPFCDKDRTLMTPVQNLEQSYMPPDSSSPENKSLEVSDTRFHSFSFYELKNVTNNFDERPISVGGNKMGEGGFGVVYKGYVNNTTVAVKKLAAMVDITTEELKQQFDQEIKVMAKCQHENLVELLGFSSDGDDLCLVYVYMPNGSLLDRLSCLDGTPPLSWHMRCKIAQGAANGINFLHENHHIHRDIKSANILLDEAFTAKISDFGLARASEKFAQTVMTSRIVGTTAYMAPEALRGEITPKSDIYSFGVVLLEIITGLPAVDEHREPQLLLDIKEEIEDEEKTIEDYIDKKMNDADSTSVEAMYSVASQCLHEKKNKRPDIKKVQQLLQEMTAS

Compound	IC50 (unit inferred)	IC50 (0.5 nM GST tagged IRAK4)
O=c1[nH]c(N2CCCN(Cc3nccs3)CC2)nc(N[C@@H]2C[C@H](CO)[C@@H](O)[C@H]2O)c1-c1nc2ccccc2s1 [Example 75, 5-(benzo[d]thiazol-2-yl)-6-((1R,2S,3R,4R)-2,3-dihydroxy-4-(hydroxymethyl)cyclopentylamino)-2-(4-(thiazol-2-ylmethyl)-1,4-diazepan-1-yl)pyrimidin-4(3H)-one]	226 nM	–
CS(=O)(=O)N1CCCN(c2nc(N[C@@H]3C[C@H](CO)[C@@H](O)[C@H]3O)c(-c3nc4ccccc4s3)c(=O)[nH]2)CC1 [Example 77, 5-(benzo[d]thiazol-2-yl)-6-((1R,2S,3R,4R)-2,3-dihydroxy-4-(hydroxymethyl)cyclopentylamino)-2-(4-(methylsulfonyl)-1,4-diazepan-1-yl)pyrimidin-4(3H)-one]	225 nM	–
O=c1[nH]c(N2CCC(Cn3cccn3)CC2)nc(N[C@@H]2C[C@H](CO)[C@@H](O)[C@H]2O)c1-c1nc2ccccc2s1 [Example 80, 2-(4-((1H-pyrazol-1-yl)methyl)piperidin-1-yl)-5-(benzo[d]thiazol-2-yl)-6-((1R,2S,3R,4R)-2,3-dihydroxy-4-(hydroxymethyl)cyclopentylamino)pyrimidin-4(3H)-one]	119 nM	–
O=C1NC2(CCN(c3nc(N[C@@H]4C[C@H](CO)[C@@H](O)[C@H]4O)c(-c4nc5ccccc5s4)c(=O)[nH]3)CC2)CO1 [Example 81, 8-(5-(benzo[d]thiazol-2-yl)-4-((1R,2S,3R,4R)-2,3-dihydroxy-4-(hydroxymethyl)cyclopentylamino)-6-oxo-1,6-dihydropyrimidin-2-yl)-3-oxa-1,8-diazaspiro[4.5]decan-2-one]	196 nM	–
O=c1[nH]c(N2CCC(c3ccccn3)C2)nc(N[C@@H]2C[C@H](CO)[C@@H](O)[C@H]2O)c1-c1nc2ccccc2s1 (stereo partly drawn) [Example 82, 5-(benzo[d]thiazol-2-yl)-6-((1R,2S,3R,4R)-2,3-dihydroxy-4-(hydroxymethyl)cyclopentylamino)-2-(3-(pyridin-2-yl)pyrrolidin-1-yl)pyrimidin-4(3H)-one]	197 nM	–
O=c1[nH]c(N2CCOCC2)nc(NC2CCNC2)c1-c1nc2ccccc2s1 (stereo not drawn) [Example 85, 5-(Benzo[d]thiazol-2-yl)-2-morpholino-6-(pyrrolidin-3-ylamino)pyrimidin-4(3H)-one.HCl]	–	177 nM
O=c1[nH]c(N2CCOCC2)nc(N[C@H]2CCNC2)c1-c1nc2ccccc2s1 [Example 86, (S)-5-(Benzo[d]thiazol-2-yl)-2-morpholino-6-(pyrrolidin-3-ylamino)pyrimidin-4(3H)-one.HCl]	–	620 nM
O=c1[nH]c(N2CCOCC2)nc(N[C@@H]2CCNC2)c1-c1nc2ccccc2s1 [Example 87, (R)-5-(Benzo[d]thiazol-2-yl)-2-morpholino-6-(pyrrolidin-3-ylamino)pyrimidin-4(3H)-one.HCl]	–	36 nM
NC1CCCC(Nc2nc(N3CCOCC3)[nH]c(=O)c2-c2nc3ccccc3s2)C1 (stereo not drawn) [Example 90, 6-(3-Aminocyclohexylamino)-5-(benzo[d]thiazol-2-yl)-2-morpholinopyrimidin-4(3H)-one.HCl]	–	258 nM
O=C1NCCCC[C@H]1Nc1nc(N2CCOCC2)[nH]c(=O)c1-c1nc2ccccc2s1 [Example 91, (R)-3-(5-(Benzo[d]thiazol-2-yl)-2-morpholino-6-oxo-1,6-dihydropyrimidin-4-ylamino)azepan-2-one.HCl]	–	2430 nM
O=c1[nH]c(N2CCOCC2)nc(NC2CCCCNC2)c1-c1nc2ccccc2s1 (stereo not drawn) [Example 92, 6-(Azepan-3-ylamino)-5-(benzo[d]thiazol-2-yl)-2-morpholinopyrimidin-4(3H)-one.HCl]	–	27 nM
O=c1[nH]c(N2CCOCC2)nc(N[C@@H]2CCCNC2)c1-c1ccc2ccccc2n1 [Example 93, (R)-2-Morpholino-6-(piperidin-3-ylamino)-5-(quinolin-2-yl)pyrimidin-4(3H)-one.HCl]	–	26 nM

Other lines, results leading:

IC50 (unit inferred)	IC50 (0.5 nM GST tagged IRAK4)	Compound
3.7 nM	–	O=c1[nH]c(N2CCN(c3cccnc3)CC2)nc(N[C@@H]2C[C@H](CO)[C@@H](O)[C@H]2O)c1-c1nc2ccccc2s1 [Example 63, 5-(benzo[d]thiazol-2-yl)-6-((1R,2S,3R,4R)-2,3-dihydroxy-4-(hydroxymethyl)cyclopentylamino)-2-(4-(pyridin-3-yl)piperazin-1-yl)pyrimidin-4(3H)-one]
6.2 nM	–	O=c1[nH]c(N2CCC(c3cncnc3)CC2)nc(N[C@@H]2C[C@H](CO)[C@@H](O)[C@H]2O)c1-c1nc2ccccc2s1 [Example 64, 5-(benzo[d]thiazol-2-yl)-6-((1R,2S,3R,4R)-2,3-dihydroxy-4-(hydroxymethyl)cyclopentylamino)-2-(4-(pyrimidin-5-yl)piperidin-1-yl)pyrimidin-4(3H)-one]
7.2 nM	–	O=c1[nH]c(N2CCc3ccncc3C2)nc(N[C@@H]2C[C@H](CO)[C@@H](O)[C@H]2O)c1-c1nc2ccccc2s1 [Example 65, 5-(benzo[d]thiazol-2-yl)-2-(3,4-dihydro-2,7-naphthyridin-2(1H)-yl)-6-((1R,2S,3R,4R)-2,3-dihydroxy-4-(hydroxymethyl)cyclopentylamino)pyrimidin-4(3H)-one]
8.8 nM	–	CN1CCC2(CCN(c3nc(N[C@@H]4C[C@H](CO)[C@@H](O)[C@H]4O)c(-c4nc5ccccc5s4)c(=O)[nH]3)CC2)C1=O [Example 66, 8-(5-(benzo[d]thiazol-2-yl)-4-((1R,2S,3R,4R)-2,3-dihydroxy-4-(hydroxymethyl)cyclopentylamino)-6-oxo-1,6-dihydropyrimidin-2-yl)-2-methyl-2,8-diazaspiro[4.5]decan-1-one]
11.8 nM	–	O=c1[nH]c(N2CCC(n3ccnn3)CC2)nc(N[C@@H]2C[C@H](CO)[C@@H](O)[C@H]2O)c1-c1nc2ccccc2s1 [Example 67, 2-(4-(1H-1,2,3-triazol-1-yl)piperidin-1-yl)-5-(benzo[d]thiazol-2-yl)-6-((1R,2S,3R,4R)-2,3-dihydroxy-4-(hydroxymethyl)cyclopentylamino)pyrimidin-4(3H)-one]
12.1 nM	–	O=c1[nH]c(N2CCN(c3ccccn3)CC2)nc(N[C@@H]2C[C@H](CO)[C@@H](O)[C@H]2O)c1-c1nc2ccccc2s1 [Example 68, 5-(benzo[d]thiazol-2-yl)-6-((1R,2S,3R,4R)-2,3-dihydroxy-4-(hydroxymethyl)cyclopentylamino)-2-(4-(pyridin-2-yl)piperazin-1-yl)pyrimidin-4(3H)-one]
12.5 nM	–	O=c1[nH]c(N2CCC(c3cnccn3)CC2)nc(N[C@@H]2C[C@H](CO)[C@@H](O)[C@H]2O)c1-c1nc2ccccc2s1 [Example 69, 5-(benzo[d]thiazol-2-yl)-6-((1R,2S,3R,4R)-2,3-dihydroxy-4-(hydroxymethyl)cyclopentylamino)-2-(4-(pyrazin-2-yl)piperidin-1-yl)pyrimidin-4(3H)-one]
13.3 nM	–	O=c1[nH]c(N2CCC(c3cccnc3)CC2)nc(N[C@@H]2C[C@H](CO)[C@@H](O)[C@H]2O)c1-c1nc2ccccc2s1 [Example 70, 5-(benzo[d]thiazol-2-yl)-6-((1R,2S,3R,4R)-2,3-dihydroxy-4-(hydroxymethyl)cyclopentylamino)-2-(4-(pyridin-3-yl)piperidin-1-yl)pyrimidin-4(3H)-one]
17.9 nM	–	CS(=O)(=O)C1CN(c2nc(N[C@@H]3C[C@H](CO)[C@@H](O)[C@H]3O)c(-c3nc4ccccc4s3)c(=O)[nH]2)C1 [Example 71, 5-(benzo[d]thiazol-2-yl)-6-((1R,2S,3R,4R)-2,3-dihydroxy-4-(hydroxymethyl)cyclopentylamino)-2-(3-(methylsulfonyl)azetidin-1-yl)pyrimidin-4(3H)-one]
19 nM	–	O=c1[nH]c(N2CCC(c3ccncc3)CC2)nc(N[C@@H]2C[C@H](CO)[C@@H](O)[C@H]2O)c1-c1nc2ccccc2s1 [Example 72, 5-(benzo[d]thiazol-2-yl)-6-((1R,2S,3R,4R)-2,3-dihydroxy-4-(hydroxymethyl)cyclopentylamino)-2-(4-(pyridin-4-yl)piperidin-1-yl)pyrimidin-4(3H)-one]
19.4 nM	–	Cn1cc(C2CCN(c3nc(N[C@@H]4C[C@H](CO)[C@@H](O)[C@H]4O)c(-c4nc5ccccc5s4)c(=O)[nH]3)CC2)nn1 [Example 73, 5-(benzo[d]thiazol-2-yl)-6-((1R,2S,3R,4R)-2,3-dihydroxy-4-(hydroxymethyl)cyclopentylamino)-2-(4-(1-methyl-1H-1,2,3-triazol-4-yl)piperidin-1-yl)pyrimidin-4(3H)-one]
26.4 nM	–	O=c1[nH]c(N2CCc3cnccc3C2)nc(N[C@@H]2C[C@H](CO)[C@@H](O)[C@H]2O)c1-c1nc2ccccc2s1 [Example 74, 5-(benzo[d]thiazol-2-yl)-2-(3,4-dihydro-2,6-naphthyridin-2(1H)-yl)-6-((1R,2S,3R,4R)-2,3-dihydroxy-4-(hydroxymethyl)cyclopentylamino)pyrimidin-4(3H)-one]
30.9 nM	–	O=c1[nH]c(N2CCC(c3ccncc3)C2)nc(N[C@@H]2C[C@H](CO)[C@@H](O)[C@H]2O)c1-c1nc2ccccc2s1 (stereo partly drawn) [Example 76, 5-(benzo[d]thiazol-2-yl)-6-((1R,2S,3R,4R)-2,3-dihydroxy-4-(hydroxymethyl)cyclopentylamino)-2-(3-(pyridin-4-yl)pyrrolidin-1-yl)pyrimidin-4(3H)-one]
36 nM	–	O=c1[nH]c(N2CCC(c3ccccn3)CC2)nc(N[C@@H]2C[C@H](CO)[C@@H](O)[C@H]2O)c1-c1nc2ccccc2s1 [Example 78, 5-(benzo[d]thiazol-2-yl)-6-((1R,2S,3R,4R)-2,3-dihydroxy-4-(hydroxymethyl)cyclopentylamino)-2-(4-(pyridin-2-yl)piperidin-1-yl)pyrimidin-4(3H)-one]
36.7 nM	–	CC(=O)NCC1CCN(c2nc(N[C@@H]3C[C@H](CO)[C@@H](O)[C@H]3O)c(-c3nc4ccccc4s3)c(=O)[nH]2)CC1 [Example 79, N-((1-(5-(benzo[d]thiazol-2-yl)-4-((1R,2S,3R,4R)-2,3-dihydroxy-4-(hydroxymethyl)cyclopentylamino)-6-oxo-1,6-dihydropyrimidin-2-yl)piperidin-4-yl)methyl)acetamide]
